In patent US20140322434A1, “METHODS FOR PRODUCING ELECTROPHOTOGRAPHIC PHOTOSENSITIVE MEMBER AND ORGANIC DEVICE EACH HAVING CHARGE TRANSPORTING LAYER” (CANON KABUSHIKI KAISHA, priority 2011, published 2014):

Assay: Solubility in water at 25° C. and 1 atm
Details: not given
Experimental: In the method for producing an electrophotographic photosensitive member of the present invention, the charge transporting substance and the binder resin are dissolved in the first liquid to prepare the first solution. […] Specific examples of the first liquid are shown in Table 1, but are not limited to the examples in Table 1.
Then, the second solution will be described.

With `Clc1ccccc1Cl` [First liquid example (3), o-Dichlorobenzene] as the compound, how does the Solubility in water read?
The Solubility in water was 0.0 mass %.

For `CC(=O)OC(C)C` [Liquid (4), isopropyl acetate, reference compound], which Solubility in water is on record?
The Solubility in water was 2.9 mass %.

Same assay, conditions: first liquid; 25° C. and 1 atm

With `CCOc1ccccc1` [First liquid example (7), Phenetole] as the compound, how does the Solubility in water read?
The Solubility in water was 0.1 mass %.

Which Solubility in water does the source give for `Cc1ccccc1C` [First liquid example (5), o-Xylene] here?
The Solubility in water was 0.0 mass %.

With `Clc1ccccc1` [First liquid example (4), Chlorobenzene] as the compound, how does the Solubility in water read?
Its Solubility in water is 0.1 mass %.

With `CCc1ccccc1` [First liquid example (6), Ethylbenzene] as the compound, how does the Solubility in water read?
The Solubility in water was 0.0 mass %.

Same assay, conditions: liquids of Comparative Examples 5 to 11; 25° C. and 1 atm

With `CCCCOC(C)COC(C)COC(C)CO` (stereo not drawn) [Liquid (5), tripropylene glycol n-butyl ether, reference compound] as the compound, how does the Solubility in water read?
Its Solubility in water is 2.9 mass %.

With `CC(=O)OCCCCOC(C)=O` [Liquid (6), 1,4-butanediol diacetate, reference compound] as the compound, how does the Solubility in water read?
Its Solubility in water is 4.2 mass %.

With `OCCOCCOc1ccccc1` [Liquid (2), diethylene glycol monophenyl ether, reference compound] as the compound, how does the Solubility in water read?
The Solubility in water was 3.4 mass %.

Same assay, conditions: second liquid; 25° C. and 1 atm

With `CCCCOCC(C)O` (stereo not drawn) [Second liquid example (13), propylene glycol n-butyl ether] as the compound, how does the Solubility in water read?
Its Solubility in water is 6.0 mass %.

Which Solubility in water does the source give for `CCCC(C)=O` [Second liquid example (8), 2-pentanone] here?
Its Solubility in water is 5.9 mass %.

For `CCCCOCC(C)O` (stereo not drawn) [Second liquid example (24), propylene glycol monobutyl ether], which Solubility in water is on record?
The Solubility in water was 6.4 mass %.

For `C1OCOCO1` [Second liquid example (6), 1,3,5-trioxane], which Solubility in water is on record?
The Solubility in water was 21.1 mass %.

For `COCC(C)OC(C)=O` (stereo not drawn) [Second liquid example (25), propylene glycol monomethyl ether acetate], which Solubility in water is on record?
The Solubility in water was 20.5 mass %.

For `COCOC` [Second liquid example (2), dimethoxymethane], which Solubility in water is on record?
Its Solubility in water is 32.3 mass %.

Assay: Solubility of second liquid in the first liquid at 25° C. and 1 atm
Details: first liquid described in Table 1

Which “Solubility in first liquid” value does the source give for `COCCOCCOC` [Second liquid example (11), diethylene glycol dimethyl ether] here?
The value was 5.0 mass % or.

With `COCCOC` [Second liquid example (12), ethylene glycol dimethyl ether] as the compound, how does the “Solubility in first liquid” value read?
Its value is 5.0 mass % or.

Which “Solubility in first liquid” value does the source give for `CCOCCOCCOCC` [Second liquid example (27), diethylene glycol diethyl ether] here?
Its value is 5.0 mass % or.

With `CCOCCOCCO` [Second liquid example (16), diethylene glycol monoethyl ether] as the compound, how does the “Solubility in first liquid” value read?
Its value is 5.0 mass % or.

With `COC(C)COC(C)COC(C)CO` (stereo not drawn) [Second liquid example (23), tripropylene glycol monomethyl ether] as the compound, how does the “Solubility in first liquid” value read?
Its value is 5.0 mass % or.

For `COCC(C)O` (stereo not drawn) [Second liquid example (21), propylene glycol monomethyl ether], which “Solubility in first liquid” value is on record?
The value was 5.0 mass % or.

Which “Solubility in first liquid” value does the source give for `CCCCOCC(C)O` (stereo not drawn) [Second liquid example (13), propylene glycol n-butyl ether] here?
Its value is 5.0 mass % or.

Which “Solubility in first liquid” value does the source give for `CCOCCOCCOC` [Second liquid example (26), diethylene glycol methyl ethyl ether] here?
The value was 5.0 mass % or.

Which “Solubility in first liquid” value does the source give for `CCCC(C)=O` [Second liquid example (8), 2-pentanone] here?
The value was 5.0 mass % or.

For `CCOC(C)=O` [Second liquid example (31), ethyl acetate], which “Solubility in first liquid” value is on record?
The value was 5.0 mass % or.

With `CCCCOCC(C)O` (stereo not drawn) [Second liquid example (24), propylene glycol monobutyl ether] as the compound, how does the “Solubility in first liquid” value read?
Its value is 5.0 mass % or.

Which “Solubility in first liquid” value does the source give for `COC(C)CCOC(C)=O` (stereo not drawn) [Second liquid example (34), 3-methoxybutyl acetate] here?
The value was 5.0 mass % or.

With `C=CCOCCO` [Second liquid example (20), ethylene glycol monoallyl ether] as the compound, how does the “Solubility in first liquid” value read?
The value was 5.0 mass % or.

Which “Solubility in first liquid” value does the source give for `CC(=O)OCC(C)OC(C)=O` (stereo not drawn) [Second liquid example (29), propylene glycol diacetate] here?
The value was 5.0 mass % or.

For `C1OCOCO1` [Second liquid example (6), 1,3,5-trioxane], which “Solubility in first liquid” value is on record?
Its value is 5.0 mass % or.

With `C1CCOOC1` [Second liquid example (3), 1,2-dioxane] as the compound, how does the “Solubility in first liquid” value read?
Its value is 5.0 mass % or.

With `COC(C)CCO` (stereo not drawn) [Second liquid example (33), 3-methoxybutanol] as the compound, how does the “Solubility in first liquid” value read?
The value was 5.0 mass % or.

With `COC(C)COC(C)CO` (stereo not drawn) [Second liquid example (22), dipropylene glycol monomethyl ether] as the compound, how does the “Solubility in first liquid” value read?
The value was 5.0 mass % or.

With `C1COCOC1` [Second liquid example (4), 1,3-dioxane] as the compound, how does the “Solubility in first liquid” value read?
The value was 5.0 mass % or.

Which “Solubility in first liquid” value does the source give for `CCCOCC(C)O` (stereo not drawn) [Second liquid example (14), propylene glycol monopropyl ether] here?
The value was 5.0 mass % or.

For `COCC(C)OCC(C)OC` (stereo not drawn) [Second liquid example (28), dipropylene glycol dimethyl ether], which “Solubility in first liquid” value is on record?
Its value is 5.0 mass % or.

With `COCC(C)OC(C)=O` (stereo not drawn) [Second liquid example (25), propylene glycol monomethyl ether acetate] as the compound, how does the “Solubility in first liquid” value read?
The value was 5.0 mass % or.

With `CC(C)COCCO` [Second liquid example (19), ethylene glycol monoisobutyl ether] as the compound, how does the “Solubility in first liquid” value read?
The value was 5.0 mass % or.

For `COCOC` [Second liquid example (2), dimethoxymethane], which “Solubility in first liquid” value is on record?
The value was 5.0 mass % or.

Same assay, conditions: liquids of Comparative Examples 5 to 11

For `CCCCOC(C)COC(C)COC(C)CO` (stereo not drawn) [Liquid (5), tripropylene glycol n-butyl ether, reference compound], which “solubility in first solution” value is on record?
Its value is ≥ 5.0 mass %.

For `CC(=O)OCCCCOC(C)=O` [Liquid (6), 1,4-butanediol diacetate, reference compound], which “solubility in first solution” value is on record?
Its value is ≥ 5.0 mass %.

With `OCCOCCOc1ccccc1` [Liquid (2), diethylene glycol monophenyl ether, reference compound] as the compound, how does the “solubility in first solution” value read?
The value was ≥ 5.0 mass %.
